Where no end group is shown, it is not given here.
Legend:
anti-IgG affibody [1] = test: Affibody purification in competitive conditions (clarified E. coli cell lysate), anti-IgG affibody; assay type: binding; conditions: elution pH 3.8; for Recovery, anti-IgG affibody: 0.4 mg/mL affibody and 2 mg/mL E. coli HCPs, 200 μL feed, room temperature, eluted vs. loaded amount, fluorescence spectroscopy; for Purity, anti-IgG affibody: competitive, clarified E. coli cell lysate, densitometric analysis of EL lanes, SDS-PAGE
Method: (§1) The adsorbents IGKQRI–GSG–Toyopearl, IHQRGQ–GSG–Toyopearl, KSAYHS–GSG–Toyopearl, and DIRIIR–GSG–Toyopearl resins were utilized to evaluate the ability of the selected sequences to purify affibody molecules from complex sources. To this end, a feed sample was prepared by spiking fluorescently labeled anti-HSA and anti-IgG affibodies at a 1:1 molar ratio into clarified E. coli cell lysate, to obtain a final concentration of 0.4 mg/mL of affibody and 2 mg/mL of bacterial HCPs. The peptide–Toyopearl adsorbents were incubated with 200 μL of feed sample for 30 min at room temperature under gentle rotation. The unbound (UB) and elution (EL) fractions were analyzed by fluorescence spectroscopy and SDS-PAGE (Figure 1) to determine the values of recovery and purity for both affibody products (Table 3). It is noted that the mass of the affibody product measured electrophoretically appears to be double than the theoretical 6.5 kDa; this is likely due to dimerization of the affibodies by formation of a disulfide bond through their C-terminal cysteine residues.
(§2) Three sequences selected in Section 2.6 were then evaluated for affibody binding in competitive mode. Aliquots of 100 μL of the peptide–Toyopearl adsorbents were swollen and equilibrated as described in Section 2.6. The feed sample was prepared by combining 100 μL of equimolar solution of fluorescently labeled anti-HSA and anti-IgG affibodies at a total 2 mg/mL affibody concentration with 400 μL of clarified E. coli cell lysate at the adjusted concentration of host cell proteins (HCPs) of 2.5 mg/mL, to obtain a final concentration of 0.4 mg/mL of affibody and 2 mg/mL of HCPs. Next, 200 μL of feed samples were incubated with each aliquot of wet peptide–Toyopearl resin for 2 h at room temperature under gentle rotation. After incubation, unbound (UB) and elution (EL) fractions were obtained as described in Section 5.2.5; they were then analyzed by fluorescence spectroscopy to determine the yield of both affibodies and finally by SDS-PAGE to determine the total purity of the eluted affibody products.
(§3) The collected fractions were desalted into phosphate buffer at pH 7.4 using Amicon Ultra 0.5-mL centrifugal filters (3 kDa MWCO). Based on the total protein concentration determined by Bradford assay, the collected fractions were adjusted at a total protein concentration of 0.1 mg/mL, diluted 1:1 with 2× Laemmli sample buffer containing 5% β-mercaptoethanol, and incubated at 100 °C for 5 min. Next, 20 µL of each sample was loaded onto each well of a 12% Mini PROTEAN® TGX precast electrophoresis gel. Then, 10 µL of Precision Plus Protein TM Dual Color Standards diluted 100× in Laemmli sample buffer was loaded in the first and last wells. Gels were electrophoresed at 100 V constant for 95 min using a Mini PROTEAN Tetra Cell (Bio-Rad, Hercules, CA, USA) linked to a PowerPac 300 power supply (Bio-Rad). Gels were fixed in 10% acetic acid, 40% ethanol in MilliQ water for 1 h. Fixed gels were washed with MilliQ water and Coomassie stained. Imaging and densitometric analysis were performed with a GelDoc XR+ (Bio-Rad) and Image Lab software (Bio-Rad) with band intensities scaled to the intensity of an affibody standard.

anti-HSA affibody [2] = test: Affibody binding/elution in non-competitive conditions on peptide–Toyopearl, anti-HSA affibody; conditions: 100 μL of 50:50 labeled anti-HSA and anti-IgG affibodies, total 1 mg/mL, in PBS pH 7.4; 50 μL resin; 1 h, room temperature; elution 0.2 M acetate pH 3.8; fluorescence spectroscopy
Method: (§4) Ten peptides selected by sequence homology, namely, ARISRQ, IGKQRI, DIRIIR, QAAKRI, SHHSQR, DIHIRR, DHHKKA, DIRIQR, KSAYHS, and IHQRGQ, were tested as ligand candidates through binding studies in non-competitive conditions (pure affibody). The peptides were synthesized directly on Toyopearl AF-Amino 650 M resin by Fmoc/tBu synthesis; polymethacrylate-based Toyopearl resin was chosen as a chromatographic support for secondary screening in place of ChemMatrix, owing to its chemical resistance to the reagents and solvents used for peptide synthesis, low non-specific protein binding, and mechanical strength. The peptide–Toyopearl adsorbents were individually incubated with a 1:1 solution of AF594-labeled anti-HSA affibody and AF488-labeled anti-IgG affibody at the concentration of 1 mg/mL for 1 h at room temperature under gentle rotation. After washing with PBS, affibody elution (EL) was performed under acidic conditions (pH 3.8), followed by resin regeneration (R) using a harsh denaturing buffer (0.45% w/v 3-[(3-cholamidopropyl)dimethylammonio]-1-propanesulfonate (CHAPS) in 0.1 M glycine, pH 2.5). The amounts of affibodies in the unbound (UB), elution (EL), and regeneration (R) fractions, measured by fluorescence spectroscopy, were utilized to calculate the values of flow-through (FT) ratio (mass of affibody in the FT fraction vs. mass of fed antibody) and yield (mass of affibody eluted vs. mass of bound affibody), listed in Table 2.
(§5) The identified sequences were synthesized on Toyopearl AF-Amino 650 M resin by Fmoc/tBu synthesis to be tested for affibody binding in non-competitive mode. Aliquots of 50 μL of each peptide–Toyopearl adsorbent were transferred in a PCR tube, swollen in 20% methanol overnight, and copiously washed in 20% methanol to remove any residual chemical from peptide synthesis, before equilibrating in Milli-Q water followed by PBS, pH 7.4. Next, 100 μL of 50:50 solution of fluorescently labeled anti-HSA and anti-IgG affibodies (Section 2.3) at a total 1 mg/mL affibody concentration were incubated with every aliquot of peptide–Toyopearl resin for 1 h at room temperature under gentle rotation. Following incubation, the resins were pelleted by centrifugation, and the supernatant was collected and marked as “unbound” (UB) fraction. The resins were then washed with PBS and the supernatant were combined with the UB fractions. Protein elution (EL) was then performed by incubating the resins with 0.2 M acetate buffer at pH 3.8 (0.2 M acetic acid and 0.2 M sodium acetate at a 7:3 ratio) for 30 min at room temperature, and then by washing with the same elution buffer. Regeneration (R) was then performed by incubating the adsorbents with 100 mM glycine buffer at pH 2.5 added with 0.45% w/v CHAPS, at 4 °C for overnight. The collected elution fractions (EL and R) were finally equilibrated to neutral pH using PBS, pH 7.4. Finally, both UB and E fractions were diluted in PBS and analyzed by fluorescence spectroscopy.

anti-HSA affibody [3] = test: Affibody purification in competitive conditions (clarified E. coli cell lysate), anti-HSA affibody; assay type: binding; conditions: elution pH 3.8; for Recovery, anti-HSA affibody: 0.4 mg/mL affibody and 2 mg/mL E. coli HCPs, 200 μL feed, room temperature, eluted vs. loaded amount, fluorescence spectroscopy; for Purity, anti-HSA affibody: competitive, clarified E. coli cell lysate, densitometric analysis of EL lanes, SDS-PAGE
Method: as §1, §2, §3

anti-IgG affibody [4] = test: Affibody binding/elution in non-competitive conditions on peptide–Toyopearl, anti-IgG affibody; conditions: 100 μL of 50:50 labeled anti-HSA and anti-IgG affibodies, total 1 mg/mL, in PBS pH 7.4; 50 μL resin; 1 h, room temperature; elution 0.2 M acetate pH 3.8; fluorescence spectroscopy
Method: as §4, §5

[5] = test system: 1:1 solution of AF594-labeled anti-HSA affibody and AF488-labeled anti-IgG affibody; test: Affibody binding/elution in non-competitive conditions on peptide–Toyopearl, affibody mixture; conditions: for capture of IgG-binding and HSA-binding affibodies compared: non-competitive, pure affibodies 1:1; for Yield (mass of affibody eluted vs. mass of bound affibody): non-competitive (pure affibody), PBS pH 7.4, 1 h, room temperature, elution pH 3.8, fluorescence spectroscopy
Method: as §4, §5

[6] = test system: anti-IgG, anti-HSA, and anti-ErbB2 affibodies; test: Langmuir adsorption isotherms, all three affibodies; assay type: binding
Method: The adsorption isotherms of anti-IgG, anti-HSA, and anti-ErbB2 affibodies on IGKQRI–GSG–Toyopearl resin were performed as described in prior work [37, 51]. Toyopearl resins functionalized with human IgG and serum albumin were utilized as corresponding positive controls, while Toyopearl® HW-40F was utilized as a negative control. Briefly, the adsorbents were incubated with solutions of target affibody at concentrations ranging between 0.01 and 2 mg/mL until binding equilibrium was reached (2.5 h). The values of bound affibody per volume of resin (q) and the corresponding equilibrium concentration of unbound affibody (C*) were fit to a Langmuir isotherm model to determine the value of maximum binding capacity (Qmax) and dissociation constant (KD,Langmuir).
Eight 50-µL aliquots of IGKQRI–GSG–Toyopearl resin were initially equilibrated in PBS at pH 7.4. Eight 0.2-mL solutions of anti-hIgG, anti-hHSA, and anti-ErbB2 affibodies in PBS at concentrations ranging from 0.01 to 2 mg/mL were prepared and incubated with the aliquots of IGKQRI–GSG–Toyopearl resin for 2.5 h at room temperature under mild shaking. […] The supernatant and washing solutions were combined and analyzed by fluorescence spectroscopy to determine the equilibrium concentration of affibody solution. The mass of affibody bound by the resin was determined by mass balance. […]

| Substance | Recovery, anti-IgG affibody (anti-IgG affibody [1]) | Purity, anti-IgG affibody (anti-IgG affibody [1]) [%] | mFT/mE (Anti-HSA), flow-through elution mass ratio (anti-HSA affibody [2]) | Recovery, anti-HSA affibody (anti-HSA affibody [3]) | Purity, anti-HSA affibody (anti-HSA affibody [3]) [%] | mFT/mE (Anti-IgG), flow-through elution mass ratio (anti-IgG affibody [4]) | capture of IgG-binding and HSA-binding affibodies compared [5] | Yield (mass of affibody eluted vs. mass of bound affibody) [5] [%] | binding of all target affibodies compared ([6]; Langmuir isotherms) | binding capacity (Qmax), summary ([6]; static binding, pure affibodies, summary over three affibodies) |
| --- | --- | --- | --- | --- | --- | --- | --- | --- | --- | --- |
| KSAYHS | 88.6% ± 3.4% | 96.4 | 0.796 | 89.5% ± 0.7% | 96.3 | 0.405 | equal capture of IgG-binding and HSA-binding affibodies | – | – | – |
| DIRIQR | – | – | 2.401 | – | – | 0.445 | – | 39.5 | – | – |
| ARISRQ | – | – | 1.709 | – | – | 0.885 | – | 51.7 | – | – |
| QAAKRI | – | – | 0.801 | – | – | 2.245 | – | 35 | – | – |
| DIRIIR | 78.3% ± 2.5% | 96.5 | 1.553 | 74.9% ± 3.6% | 96.2 | 0.707 | – | – | – | – |
| IGKQRI [IGKQRI] | 97.2% ± 1.5% | 95.8 | 0.628 | 95.2% ± 4.6% | 94.1 | 0.448 | equal capture of IgG-binding and HSA-binding affibodies | – | comparable affinity and binding capacity | ~ 5 mg affibody per mL of resin |
| DIHIRR | – | – | 0.473 | – | – | 1.277 | – | 40.4 | – | – |
| SHHSQR | – | – | 1.387 | – | – | 1.238 | – | 44.3 | – | – |
| IHQRGQ | 95.3% ± 4.5% | 93.1 | 0.781 | 96.1% ± 2.4% | 92.6 | 0.446 | equal capture of IgG-binding and HSA-binding affibodies | – | – | – |
| DHHKKA | – | – | 2.039 | – | – | 1.256 | – | 38.5 | – | – |
